ChEMBL document CHEMBL1201862, “PubChem BioAssay data set” (2004)
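Dose response: 5 concentrations. Exposure: 48 h. Format: 96-well plates. Endpoint: linear interpolation; highest concentration if not reached. At the GI50, growth is halved.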 Calls of active or inactive are those of the source. Cut-off read from the data, not from the text of the source: active = GI50 up to about 1.1 µM and inactive = higher.

Tests used:
Experiment in all cases: NCI tumour cell line growth inhibition, 48 h
SF-268 = test system: SF-268
DU-145 = test system: DU-145
MCF7 = test system: MCF7
Malme-3M = test system: Malme-3M
U-251 = test system: U-251
SK-MEL-5 = test system: SK-MEL-5
SNB-19 = test system: SNB-19
OVCAR-3 = test system: OVCAR-3
SK-MEL-2 = test system: SK-MEL-2
SW-620 = test system: SW-620
CCRF-CEM = test system: CCRF-CEM
ACHN = test system: ACHN
OVCAR-8 = test system: OVCAR-8
IGROV-1 = test system: IGROV-1
EKVX = test system: EKVX

Compound	GI50 (SF-268)	GI50 (DU-145)	GI50 (MCF7)	GI50 (Malme-3M)	GI50 (U-251)	GI50 (SK-MEL-5)	GI50 (SNB-19)	GI50 (OVCAR-3)	GI50 (SK-MEL-2)	GI50 (SW-620)	GI50 (CCRF-CEM)	GI50 (ACHN)	GI50 (OVCAR-8)	GI50 (IGROV-1)	GI50 (EKVX)
COc1ccc(C2C3=C(COC3=O)Oc3cc4c(cc32)OCO4)cc1OC (stereo not drawn)	6.17 µM (inactive)	1.81 µM (inactive)	0.408 µM (active)	0.682 µM (active)	0.785 µM (active)	0.489 µM (active)	0.716 µM (active)	1.38 µM (inactive)	0.679 µM (active)	0.492 µM (active)	0.428 µM (active)	1.82 µM (inactive)	4.05 µM (inactive)	0.713 µM (active)	3.61 µM (inactive)
CCOP1(=O)C=C(Sc2ccc([N+](=O)[O-])cc2[N+](=O)[O-])C(C)(C)O1 (stereo not drawn)	17.6 µM (inactive)	13.4 µM (inactive)	3.99 µM (inactive)	12 µM (inactive)	14.9 µM (inactive)	9.86 µM (inactive)	27.6 µM (inactive)	11.6 µM (inactive)	11.3 µM (inactive)	11.6 µM (inactive)	2.42 µM (inactive)	14.5 µM (inactive)	16.7 µM (inactive)	16.5 µM (inactive)	14.4 µM (inactive)
N#Cc1c(-c2ccc(Cl)cc2)cc(-c2ccc(Nc3ccnc4cc(Cl)ccc34)cc2)[nH]c1=O	26.2 µM (inactive)	99.3 µM (inactive)	> 100 µM (inactive)	> 65.8 µM (inactive)	15.5 µM (inactive)	> 100 µM (inactive)	27.7 µM (inactive)	> 100 µM (inactive)	31.4 µM (inactive)	> 100 µM (inactive)	16 µM (inactive)	32 µM (inactive)	> 100 µM (inactive)	> 100 µM (inactive)	> 82.2 µM (inactive)
COc1ccc2[nH]c3c(C)c4ccnc(NCCCN(C)CCCN)c4c(C)c3c2c1	0.138 µM (active)	0.196 µM (active)	0.0263 µM (active)	0.31 µM (active)	0.0803 µM (active)	0.178 µM (active)	0.213 µM (active)	0.469 µM (active)	0.336 µM (active)	0.102 µM (active)	0.0726 µM (active)	0.119 µM (active)	0.162 µM (active)	0.165 µM (active)	0.225 µM (active)
C=C(Cl)C(Cl)(CBr)CCC(Cl)C(C)(C)Cl (stereo not drawn)	1.08 µM (active)	1.35 µM (inactive)	0.879 µM (active)	7.24 µM (inactive)	0.597 µM (active)	10.6 µM (inactive)	2.26 µM (inactive)	1.61 µM (inactive)	0.238 µM (active)	1.47 µM (inactive)	8.63 µM (inactive)	1.77 µM (inactive)	2.36 µM (inactive)	6.84 µM (inactive)	8.38 µM (inactive)
CC(C)=CCc1c(O)c(CC=C(C)C)c2oc3c(c(=O)c2c1O)C(C=C(C)C)Oc1cc(O)ccc1-3 (stereo not drawn)	6.07 µM (inactive)	10.4 µM (inactive)	4.98 µM (inactive)	20.7 µM (inactive)	4.78 µM (inactive)	8.53 µM (inactive)	10.5 µM (inactive)	4.18 µM (inactive)	2.92 µM (inactive)	4.17 µM (inactive)	0.804 µM (active)	4.49 µM (inactive)	6.85 µM (inactive)	7.53 µM (inactive)	3.88 µM (inactive)
CCOP(=O)(OCC)/C(F)=C/c1ccc(F)cc1	> 100 µM (inactive)	> 100 µM (inactive)	> 100 µM (inactive)	> 100 µM (inactive)	> 100 µM (inactive)	> 100 µM (inactive)	> 100 µM (inactive)	> 100 µM (inactive)	> 100 µM (inactive)	> 100 µM (inactive)	> 100 µM (inactive)	> 100 µM (inactive)	> 100 µM (inactive)	> 100 µM (inactive)	> 100 µM (inactive)
O=C(c1ccccc1)c1ccc2nc3n(c2c1)C(c1c(F)cccc1F)SC3 (stereo not drawn)	9.66 µM (inactive)	11.3 µM (inactive)	3.85 µM (inactive)	5.68 µM (inactive)	6.67 µM (inactive)	4.08 µM (inactive)	4.98 µM (inactive)	4.9 µM (inactive)	8.3 µM (inactive)	3.18 µM (inactive)	4.76 µM (inactive)	3.85 µM (inactive)	9.33 µM (inactive)	5.05 µM (inactive)	3.56 µM (inactive)
CC(C)(C)OC(=O)NCCCCCCC(=O)Cc1ccccc1	> 100 µM (inactive)	> 100 µM (inactive)	> 100 µM (inactive)	> 100 µM (inactive)	> 100 µM (inactive)	60.8 µM (inactive)	> 100 µM (inactive)	> 100 µM (inactive)	> 100 µM (inactive)	> 100 µM (inactive)	> 100 µM (inactive)	> 100 µM (inactive)	> 100 µM (inactive)	> 100 µM (inactive)	> 100 µM (inactive)
C/C(=N\NC(=S)NCc1ccccc1)c1nc2cccnc2[nH]1	4.62 µM (inactive)	4.84 µM (inactive)	3.53 µM (inactive)	13.4 µM (inactive)	5.3 µM (inactive)	3.57 µM (inactive)	6.49 µM (inactive)	11.1 µM (inactive)	13.1 µM (inactive)	9.66 µM (inactive)	3.27 µM (inactive)	3.57 µM (inactive)	10.1 µM (inactive)	8 µM (inactive)	2.88 µM (inactive)
CC(=O)OC1COC(n2nc(/C=C/c3ccc(Cl)cc3)c(=O)n(/N=C/c3ccccc3)c2=S)C(OC(C)=O)C1OC(C)=O (stereo not drawn)	> 100 µM (inactive)	> 100 µM (inactive)	> 100 µM (inactive)	> 100 µM (inactive)	> 100 µM (inactive)	> 100 µM (inactive)	> 100 µM (inactive)	> 100 µM (inactive)	> 100 µM (inactive)	> 100 µM (inactive)	> 100 µM (inactive)	> 100 µM (inactive)	> 100 µM (inactive)	> 100 µM (inactive)	> 100 µM (inactive)
O=C(c1ccccc1)N1CCC(Nc2nccs2)O1 (stereo not drawn)	> 10 µM (inactive)	> 10 µM (inactive)	> 10 µM (inactive)	> 10 µM (inactive)	–	> 10 µM (inactive)	> 10 µM (inactive)	> 10 µM (inactive)	> 10 µM (inactive)	> 10 µM (inactive)	> 10 µM (inactive)	> 10 µM (inactive)	> 10 µM (inactive)	> 10 µM (inactive)	> 10 µM (inactive)
CN1[C@@H]2CCCC[C@H]2N(C)P1(=O)C(O)/C=C/c1ccccc1 (stereo partly drawn)	> 100 µM (inactive)	> 100 µM (inactive)	> 100 µM (inactive)	> 100 µM (inactive)	> 100 µM (inactive)	> 100 µM (inactive)	> 100 µM (inactive)	> 100 µM (inactive)	> 100 µM (inactive)	> 100 µM (inactive)	> 100 µM (inactive)	> 100 µM (inactive)	> 100 µM (inactive)	> 100 µM (inactive)	> 100 µM (inactive)
CCN(CC)CCCNc1ccc([N+](=O)[O-])c2nc3ccccc3c(N)c12	1.23 µM (inactive)	1.05 µM (active)	0.402 µM (active)	2.48 µM (inactive)	–	0.241 µM (active)	0.929 µM (active)	1.55 µM (inactive)	1.14 µM (inactive)	0.365 µM (active)	0.45 µM (active)	0.324 µM (active)	0.65 µM (active)	0.622 µM (active)	1.01 µM (active)
N#CC(NC12CC3CC(CC(C3)C1)C2)c1ccccc1 (stereo not drawn)	> 100 µM (inactive)	> 100 µM (inactive)	> 100 µM (inactive)	> 100 µM (inactive)	> 100 µM (inactive)	> 100 µM (inactive)	> 100 µM (inactive)	> 100 µM (inactive)	> 100 µM (inactive)	> 100 µM (inactive)	20.8 µM (inactive)	> 100 µM (inactive)	> 100 µM (inactive)	> 100 µM (inactive)	> 100 µM (inactive)
CC(C)=CC(=O)O[C@@H]1CC(C)(C)CC2C3=CCC4[C@]56CC[C@](O)(OC5)C(C)(C)C6CC[C@@]4(C)C3(C)CC[C@]21C(=O)O (stereo partly drawn)	74.1 µM (inactive)	56.4 µM (inactive)	> 100 µM (inactive)	> 100 µM (inactive)	32.9 µM (inactive)	> 100 µM (inactive)	54.3 µM (inactive)	31.3 µM (inactive)	> 100 µM (inactive)	> 100 µM (inactive)	41.7 µM (inactive)	25.8 µM (inactive)	59.6 µM (inactive)	31.8 µM (inactive)	> 100 µM (inactive)
Nc1ccn(C=C=CCO)c(=O)n1	> 100 µM (inactive)	> 100 µM (inactive)	> 100 µM (inactive)	> 100 µM (inactive)	> 100 µM (inactive)	> 100 µM (inactive)	> 100 µM (inactive)	> 100 µM (inactive)	> 100 µM (inactive)	> 100 µM (inactive)	7.43 µM (inactive)	> 100 µM (inactive)	229 µM (inactive)	> 100 µM (inactive)	> 100 µM (inactive)
COc1cc(-c2oc3c(OC)c(O)c(OC)c(O)c3c(=O)c2OC)cc(OC)c1OC	21 µM (inactive)	> 100 µM (inactive)	38 µM (inactive)	> 100 µM (inactive)	47.6 µM (inactive)	14 µM (inactive)	> 100 µM (inactive)	31.6 µM (inactive)	77.1 µM (inactive)	> 100 µM (inactive)	47.9 µM (inactive)	48.3 µM (inactive)	53.7 µM (inactive)	31.3 µM (inactive)	> 100 µM (inactive)
